Like-named read-outs stand apart in the source and are kept apart here.
How the values were obtained:
A549 cells = assay: BrdU-ELISA (DNA synthesis inhibition); format: cell-based; conditions: Homo sapiens, read-out: IC50 BrdU-ELISA
Protocol: (§1) BrdU-ELISA was performed according to the protocol described by Lehmann and collaborators, and the results were used to evaluate the inhibition of DNA synthesis. A total of 1 × 10^4 cells/well were seeded in 100 µL of fresh medium into 96-well plates in triplicate at 37 °C in a humidified atmosphere of 95% air plus 5% CO2 for 24 h. Then, the medium was removed and replaced with 200 µL of medium with the same concentrations of CBD and CBDV that had been used in the previous test. In all experiments, blanks (wells with medium and without cells), negative controls (with only medium) and solvent controls (2.5% methanol) were included. The plates were incubated at 37 °C for 72 h. Then, 20 µL of 100 µM BrdU labelling solution was added to each well and incubated for 2 h at 37 °C. After removing the labelling solution, 200 µl of DNA fixing/denaturing solution was added to each well and incubated for 30 min at room temperature. After its discharge, 100 µL of the anti-BrdU-POD antibody solution [0.075 U/mL] was added to each well and incubated for 90 min at room temperature. After several washing steps with 1X PBS (200–300 µL/well), 100 µl of tetramethylbenzidine (TMB) was added to each well and incubated for 20–30 min (sufficient time for the colour change). The incorporation of BrdU into DNA was quantified spectrophotometrically at 370 nm. […] The mean absorbance of the control cells represented 100% cell proliferation, and the mean absorbance of the treated cells was related to the control values to determine cell sensitivity. Inhibition (%) of DNA synthesis/cell viability was determined as follows:2 IC%=1-OD370sample/OD370negativecontrol·100
(§2) IC50 values (representing the median concentration at which DNA synthesis and cell viability were reduced by 50%) were calculated.
(§3) All results from five independent experiments are expressed as the IC50 or EC50 as determined by analysis with Prism 5 software (GraphPad Inc., San Diego, CA, USA) and nonlinear regression (log agonist vs. normalized response-variable slope) with a 95% confidence range. Lowest observed adverse effect concentrations (LOAECs) were calculated by one-way ANOVA and Dunnett’s comparison test. Differences compared to the controls were considered significant as follows: *p < 0.05, **p < 0.001 and ***p < 0.0001.

MDA-MB-231 cells = assay: BrdU-ELISA (DNA synthesis inhibition); format: cell-based; conditions: Homo sapiens, read-out: IC50 BrdU-ELISA
Protocol: as §1, §2, §3

Caco-2 cells = assay: BrdU-ELISA (DNA synthesis inhibition); format: cell-based, human; conditions: for IC50: Homo sapiens, read-out: IC50 BrdU-ELISA
Protocol: as §1, §2, §3

Hep G2 cells = assay: BrdU-ELISA (DNA synthesis inhibition); format: cell-based, human; conditions: for IC50: Homo sapiens, read-out: IC50 BrdU-ELISA
Protocol: as §1, §2, §3

TelCOFS02MA cells = assay: BrdU-ELISA (DNA synthesis inhibition); format: cell-based, human; conditions: for IC50: Homo sapiens, read-out: IC50 BrdU-ELISA
Protocol: as §1, §2, §3

[1] = ABTS assay (radical scavenging); conditions: for TEAC (Trolox equivalent antioxidant capacity), ABTS: EC50 Trolox/EC50 sample; for ABTS scavenging capacity less than the capacity of Trolox: compared with Trolox
Protocol: An ABTS assay was performed following the procedure described by Lavorgna et al. 2019[66]. The cationic ABTS radical (ABTS^+) was generated by oxidizing ABTS (7 mM) with potassium persulfate (140 mM K2S2O8), and the mixture was incubated for 12–16 h in the dark. The ABTS^+ working solution was diluted to an absorbance of […] OD at 734 nm. […] Distilled water was used for the blank, Trolox was used for the standard control, and methanol was used for the solvent control.
The results are expressed as the median effective concentration (EC50). Furthermore, Trolox equivalent antioxidant capacity (TEAC) values were calculated following the procedure used by Shimamura end colleagues[68]:5 TEAC=EC50Trolox/EC50sample
as §3

[2] = DPPH assay (radical scavenging); conditions: for DPPH scavenging capacity less than the capacity of Trolox: compared with Trolox
Protocol: DPPH assay was performed following the protocol described by Brand-Williams et al.[69]. DPPH^⋅ was dissolved in methanol, generating a purple solution (101.43 µM). […] Furthermore, 940 μL of methanol and 60 μL of distilled water were used for the blank. Trolox was used as the standard control, and methanol was used as the solvent control.
The results were expressed as the median effective concentration of sample able to reduce the initial absorbance of the DPPH radical (EC50). Furthermore, TEAC values were calculated in line with Shimamura end colleagues[68] as previously reported.
as §3

[3] = system: Escherichia coli (ATCC 13762); assay: Microbial susceptibility test (growth inhibition); format: cell-based; conditions: read-out: IC50 bacterial growth inhibition
Protocol: (§4) Escherichia coli (ATCC 13762) and S. aureus (ATCC 6538) were cultured overnight in tryptic soy broth and soybean-casein digestive medium (TSB, Oxoid, Milano, Italy) at 37 °C[70]. Subsequently, using 96-well plates (Sarstedt, Italy), 100 µL of TSB, 100 µL of CBD (5–160 µM, DF = 2) or CBDV (5.46–175 µM, DF = 2) and 100 µL of the bacterial culture corresponding to 1 × 10^4 CFU were added sequentially to each well. CBD and CBDV final concentrations in wells equal to 1.66–53 and 1.82–58.19 µM, respectively, were chosen on the basis of range-finding tests. TSB alone was used as the blank, physiologic solution (0.9% NaCl) was used as the negative control, methanol 5% v/v (final percentage in wells equal to 1.6% v/v) was used as the solvent control, and streptomycin at 60 µM (final concentration in the well equal to 20 µM) was used as the positive control. Experiments were conducted in sextuplicate. The plates were covered with sterile film to prevent evaporation and incubated at 37 °C. After 24, 48 and 72 h, the optical density of each well was recorded at 620 nm using a microplate reader. The bacterial growth inhibition percentage (IC%) was determined as follows:7 IC%=1-OD620testsample-OD620blank/OD620negativecontrol-OD620blank·100
as §3

S. aureus (ATCC 6538) = assay: Microbial susceptibility test (growth inhibition); format: cell-based; conditions: Staphylococcus aureus, read-out: IC50 bacterial growth inhibition
Protocol: as §4, §3

[4] = system: SZ95, normal-like sebocytes; parameters: method as in PMID 27094344; conditions: 24 h of treatment; cited from earlier work
S. aureus = system: S. aureus; parameters: method as in PMID 33469147; conditions: S. aureus exposed at 6–14 µM; cited from earlier work

With `C=C(C)[C@@H]1CCC(C)=C[C@H]1c1c(O)cc(CCC)cc1O` [CBDV, cannabidivarin] as the compound, how does the IC50 (A549 cells; A549, 72 h) read?
Its IC50 is 48.6 µM.

And the IC50 (MDA-MB-231 cells; MDA-MB-231, 72 h)?
Its IC50 is 46.8 µM.

What about the “LOAEC BrdU-ELISA” value (Caco-2 cells; Caco-2, 72 h) of the same compound?
Its value is 22 µM.

What about the IC50 (Caco-2 cells; Caco-2, 72 h) of the same compound?
The IC50 was 40.4 µM.

What about the “LOAEC BrdU-ELISA” value (Hep G2 cells; Hep G2, 72 h) of the same compound?
The value was 22 µM.

What about the IC50 (Hep G2 cells; HepG2, 72 h) of the same compound?
Its IC50 is 46.7 µM.

What about the IC50 (TelCOFS02MA cells; 72 h) of the same compound?
Its IC50 is 69.1 µM.

What about the “LOAEC BrdU-ELISA” value (TelCOFS02MA cells; TelCOFS02MA, 72 h) of the same compound?
Its value is 44 µM.

And the “TEAC (Trolox equivalent antioxidant capacity), ABTS” value [1]?
Its value is 0.27.

And the “ABTS scavenging capacity less than the capacity of Trolox” value [1]?
The value was 73%.

And the “TEAC (Trolox equivalent antioxidant capacity), DPPH” value ([2]; EC50 Trolox/EC50 sample)?
Its value is 0.09.

What about the “DPPH scavenging capacity less than the capacity of Trolox” value [2] of the same compound?
The value was 91%.

And the IC50 ([3]; ATCC13762, 72 h)?
The IC50 was 35.5 µM.

What about the IC50 (S. aureus (ATCC 6538); ATCC6538, 72 h) of the same compound?
The IC50 was 30.8 µM.

What about the “concentration giving a significant decrease in cell viability (MTT)” value [4] of the same compound?
Its value is 100 nM.

What does the source list for `C=C(C)[C@@H]1CCC(C)=C[C@H]1c1c(O)cc(CCCCC)cc1O` [CBD, Cannabidiol]?
IC50 (A549 cells; A549, 72 h exposure, 95% confidence interval in brackets): 40.4 µM; IC50 (MDA-MB-231 cells; MDA-MB-231, 72 h exposure, 95% confidence interval in brackets): 38.4 µM; IC50 (Caco-2 cells; Caco-2, 72 h exposure, 95% confidence interval in brackets): 33.3 µM; IC50 (Hep G2 cells; HepG2, Hep G2, 72 h exposure, 95% confidence interval in brackets): 39.2 µM; IC50 (TelCOFS02MA cells; TelCOFS02MA, 72 h exposure, 95% confidence interval in brackets): 49.1 µM; TEAC (Trolox equivalent antioxidant capacity), ABTS [1]: 0.21; ABTS scavenging capacity less than the capacity of Trolox [1]: 79%; DPPH scavenging capacity less than the capacity of Trolox [2]: 90%; IC50 ([3]; ATCC13762, E. coli, 72 h of incubation, 95% confidence range in brackets): 29.1 µM; IC50 (S. aureus (ATCC 6538); ATCC6538, S. aureus, 24 h of exposure, 95% confidence range in brackets): 10.3 µM; IC50 (S. aureus (ATCC 6538); ATCC6538, S. aureus, 48 h of exposure, 95% confidence range in brackets): 4.86 µM; IC50 (S. aureus (ATCC 6538); ATCC6538, S. aureus, 72 h of exposure, 95% confidence range in brackets): 1.84 µM; protein, DNA, RNA and peptidoglycan synthesis (S. aureus): inhibited
